Experimental data: ChEMBL document CHEMBL3352092, “Ferrier sulfamidoglycosylation of glycals catalyzed by nitrosonium tetrafluoroborate: towards new carbonic anhydrase glycoinhibitors” (Bioorg Med Chem, 2014)

Columns and labels:
Carbonic anhydrase 9 = Carbonic anhydrase 9 (Homo sapiens, UniProt Q16790); test: Inhibition of human recombinant CA9 catalytic domain by stopped flow CO2 hydration assay
Carbonic anhydrase 1 = Carbonic anhydrase 1 (Homo sapiens, UniProt P00915); test: Inhibition of human full length CA1 by stopped flow CO2 hydration assay
Sequence of Carbonic anhydrase 1 (P00915 whole entry): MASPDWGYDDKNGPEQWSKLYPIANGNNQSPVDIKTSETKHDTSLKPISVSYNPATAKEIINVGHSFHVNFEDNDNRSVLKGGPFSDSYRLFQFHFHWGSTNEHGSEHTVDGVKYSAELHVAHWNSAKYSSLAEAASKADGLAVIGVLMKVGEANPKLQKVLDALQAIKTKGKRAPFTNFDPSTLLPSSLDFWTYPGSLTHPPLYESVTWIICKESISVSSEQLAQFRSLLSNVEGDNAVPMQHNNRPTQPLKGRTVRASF

Carbonic anhydrase 2 = Carbonic anhydrase 2 (Homo sapiens, UniProt P00918); test: Inhibition of human full length CA2 by stopped flow CO2 hydration assay

| Ki (Carbonic anhydrase 9) | Ki (Carbonic anhydrase 1) | Ki (Carbonic anhydrase 2) | Compound |
| --- | --- | --- | --- |
| 54 nM | > 10000 nM | > 10000 nM | CC(=O)O[C@H]1C=CC(NS(=O)(=O)NO)OC1 (stereo partly drawn) |
| 44 nM | > 10000 nM | > 10000 nM | CC(=O)O[C@@H]1C=CC(NS(=O)(=O)NO)OC1 (stereo partly drawn) |
| 8 nM | 927 nM |  | O=S(=O)(NO)NC1C=C[C@H](O)CO1 (stereo partly drawn) |
| 9 nM | > 10000 nM |  | O=S(=O)(NO)NC1C=C[C@@H](O)CO1 (stereo partly drawn) |

The remaining lines, values behind:

| Compound | Ki (Carbonic anhydrase 9) | Ki (Carbonic anhydrase 1) | Ki (Carbonic anhydrase 2) |
| --- | --- | --- | --- |
| CC(=O)OC[C@H]1OC(NS(=O)(=O)NO)C=C[C@@H]1OC(C)=O (stereo partly drawn) | 90 nM | 813 nM |  |
| CC(=O)OC[C@H]1OC(NS(=O)(=O)NO)C=C[C@H]1OC(C)=O (stereo partly drawn) | 79 nM | 752 nM |  |
| CC(=O)O[C@@H]1C=CC(NS(=O)(=O)NO)O[C@H]1C (stereo partly drawn) | 47 nM | > 10000 nM |  |
| O=S(=O)(NO)NC1C=C[C@H](O)[C@@H](CO)O1 (stereo partly drawn) | 9 nM | > 10000 nM |  |
| O=S(=O)(NO)NC1C=C[C@@H](O)[C@@H](CO)O1 (stereo partly drawn) | 44 nM | 917 nM |  |
| C[C@@H]1OC(NS(=O)(=O)NO)C=C[C@H]1O (stereo partly drawn) | 8 nM | > 10000 nM | > 10000 nM |
